Key:
Assay in all cases: Inhibition Assays of p110α/p85α, p110β/p85α, p110δ/p85α, and p110γ
[1] = target: T1, Phosphatidylinositol 4,5-bisphosphate 3-kinase catalytic subunit delta isoform (Homo sapiens, UniProt O00329)
T1 sequence (O00329 whole entry): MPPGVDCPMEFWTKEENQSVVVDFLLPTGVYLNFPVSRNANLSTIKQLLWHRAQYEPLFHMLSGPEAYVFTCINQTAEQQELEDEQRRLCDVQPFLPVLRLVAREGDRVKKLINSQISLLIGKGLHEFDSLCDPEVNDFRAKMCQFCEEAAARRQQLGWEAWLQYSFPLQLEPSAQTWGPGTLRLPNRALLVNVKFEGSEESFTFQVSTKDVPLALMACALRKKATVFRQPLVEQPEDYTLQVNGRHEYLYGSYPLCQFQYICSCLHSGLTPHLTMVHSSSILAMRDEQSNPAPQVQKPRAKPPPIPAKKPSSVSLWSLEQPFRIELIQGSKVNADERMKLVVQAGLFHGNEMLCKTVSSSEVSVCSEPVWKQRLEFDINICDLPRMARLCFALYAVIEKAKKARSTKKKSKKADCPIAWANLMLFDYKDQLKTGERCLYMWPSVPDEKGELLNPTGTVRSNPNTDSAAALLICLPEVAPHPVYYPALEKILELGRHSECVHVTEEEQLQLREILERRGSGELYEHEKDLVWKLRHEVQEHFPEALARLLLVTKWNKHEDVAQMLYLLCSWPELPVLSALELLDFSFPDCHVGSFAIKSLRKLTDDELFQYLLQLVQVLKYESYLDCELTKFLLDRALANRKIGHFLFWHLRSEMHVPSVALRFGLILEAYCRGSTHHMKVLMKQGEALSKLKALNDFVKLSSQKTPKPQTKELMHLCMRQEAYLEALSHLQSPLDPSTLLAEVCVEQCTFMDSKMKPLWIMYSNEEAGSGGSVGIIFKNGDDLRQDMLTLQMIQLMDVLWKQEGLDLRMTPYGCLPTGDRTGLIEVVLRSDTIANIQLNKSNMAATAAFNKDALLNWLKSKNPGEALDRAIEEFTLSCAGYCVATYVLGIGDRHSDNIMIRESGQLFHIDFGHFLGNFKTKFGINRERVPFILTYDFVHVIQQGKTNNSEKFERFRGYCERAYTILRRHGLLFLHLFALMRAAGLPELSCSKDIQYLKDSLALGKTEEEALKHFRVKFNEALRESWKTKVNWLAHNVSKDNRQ
Method: (§1) Briefly, the assay is a time resolved FRET assay that indirectly measures PIP3 product formed by the activity of a PI3-K. The kinase reaction is performed in a microtitre plate (e.g., a 384 well microtitre plate). The total reaction volume is approximately 20 ul per well. In the first step, each well receives 2 ul of test compound in 20% dimethylsulphoxide resulting in a 2% DMSO final concentration. Next, approximately 14.5 ul of a kinase/PIP2 mixture (diluted in 1× reaction buffer) is added per well for a final concentration of 0.25-0.3 ug/ml kinase and 10 uM PIP2. […] To start the reaction, 3.5 ul of ATP (diluted in 1× reaction buffer) is added per well for a final concentration of 10 uM ATP. The plate is sealed and incubated for 1 hour at room temperature. The reaction is stopped by adding 5 ul of Stop Solution per well and then 5 ul of Detection Mix is added per well. The plate is sealed, incubated for 1 hour at room temperature, and then read on an appropriate plate reader. Data is analyzed and IC50s are generated using GraphPad Prism 5.

[2] = target: T2, Phosphatidylinositol 4,5-bisphosphate 3-kinase catalytic subunit gamma isoform (Homo sapiens, UniProt P48736)
T2 construct: gene PIK3CG
Method: as §1

[3] = target: Phosphatidylinositol 4,5-bisphosphate 3-kinase catalytic subunit alpha isoform (Homo sapiens, UniProt P42336)
Method: as §1

[4] = target: Phosphatidylinositol 4,5-bisphosphate 3-kinase catalytic subunit beta isoform (Homo sapiens, UniProt P42338)
Phosphatidylinositol 4,5-bisphosphate 3-kinase catalytic subunit beta isoform, sequence (P42338 whole entry, canonical isoform): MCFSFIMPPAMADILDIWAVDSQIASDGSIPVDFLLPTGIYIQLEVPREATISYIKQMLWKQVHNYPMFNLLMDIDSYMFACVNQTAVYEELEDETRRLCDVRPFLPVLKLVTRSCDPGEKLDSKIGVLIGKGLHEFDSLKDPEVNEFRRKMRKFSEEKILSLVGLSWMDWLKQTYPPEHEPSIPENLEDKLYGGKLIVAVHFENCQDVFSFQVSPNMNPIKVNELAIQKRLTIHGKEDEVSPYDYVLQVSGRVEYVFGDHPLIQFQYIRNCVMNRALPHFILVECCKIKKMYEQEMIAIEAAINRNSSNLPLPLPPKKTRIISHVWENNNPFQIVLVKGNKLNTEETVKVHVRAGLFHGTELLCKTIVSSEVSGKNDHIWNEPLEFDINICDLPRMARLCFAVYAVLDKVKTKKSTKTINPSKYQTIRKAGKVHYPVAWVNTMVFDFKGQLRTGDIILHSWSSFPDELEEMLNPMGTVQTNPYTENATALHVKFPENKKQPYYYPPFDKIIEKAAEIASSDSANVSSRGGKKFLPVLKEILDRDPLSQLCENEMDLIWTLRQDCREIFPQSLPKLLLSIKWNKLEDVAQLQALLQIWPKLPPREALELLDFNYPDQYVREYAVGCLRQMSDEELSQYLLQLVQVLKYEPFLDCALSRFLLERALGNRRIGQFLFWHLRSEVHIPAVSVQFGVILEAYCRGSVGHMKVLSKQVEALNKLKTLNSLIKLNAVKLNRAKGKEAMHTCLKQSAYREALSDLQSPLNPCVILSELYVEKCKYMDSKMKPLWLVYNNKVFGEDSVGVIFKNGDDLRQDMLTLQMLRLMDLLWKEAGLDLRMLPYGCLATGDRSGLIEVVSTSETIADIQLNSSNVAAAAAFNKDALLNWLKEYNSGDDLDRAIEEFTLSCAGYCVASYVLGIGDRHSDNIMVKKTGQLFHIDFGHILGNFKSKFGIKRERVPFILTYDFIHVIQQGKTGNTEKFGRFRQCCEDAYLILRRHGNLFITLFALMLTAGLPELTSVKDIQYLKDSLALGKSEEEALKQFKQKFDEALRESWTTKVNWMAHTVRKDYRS
Method: as §1

T2 sequence (P48736 whole entry, looked up, canonical isoform): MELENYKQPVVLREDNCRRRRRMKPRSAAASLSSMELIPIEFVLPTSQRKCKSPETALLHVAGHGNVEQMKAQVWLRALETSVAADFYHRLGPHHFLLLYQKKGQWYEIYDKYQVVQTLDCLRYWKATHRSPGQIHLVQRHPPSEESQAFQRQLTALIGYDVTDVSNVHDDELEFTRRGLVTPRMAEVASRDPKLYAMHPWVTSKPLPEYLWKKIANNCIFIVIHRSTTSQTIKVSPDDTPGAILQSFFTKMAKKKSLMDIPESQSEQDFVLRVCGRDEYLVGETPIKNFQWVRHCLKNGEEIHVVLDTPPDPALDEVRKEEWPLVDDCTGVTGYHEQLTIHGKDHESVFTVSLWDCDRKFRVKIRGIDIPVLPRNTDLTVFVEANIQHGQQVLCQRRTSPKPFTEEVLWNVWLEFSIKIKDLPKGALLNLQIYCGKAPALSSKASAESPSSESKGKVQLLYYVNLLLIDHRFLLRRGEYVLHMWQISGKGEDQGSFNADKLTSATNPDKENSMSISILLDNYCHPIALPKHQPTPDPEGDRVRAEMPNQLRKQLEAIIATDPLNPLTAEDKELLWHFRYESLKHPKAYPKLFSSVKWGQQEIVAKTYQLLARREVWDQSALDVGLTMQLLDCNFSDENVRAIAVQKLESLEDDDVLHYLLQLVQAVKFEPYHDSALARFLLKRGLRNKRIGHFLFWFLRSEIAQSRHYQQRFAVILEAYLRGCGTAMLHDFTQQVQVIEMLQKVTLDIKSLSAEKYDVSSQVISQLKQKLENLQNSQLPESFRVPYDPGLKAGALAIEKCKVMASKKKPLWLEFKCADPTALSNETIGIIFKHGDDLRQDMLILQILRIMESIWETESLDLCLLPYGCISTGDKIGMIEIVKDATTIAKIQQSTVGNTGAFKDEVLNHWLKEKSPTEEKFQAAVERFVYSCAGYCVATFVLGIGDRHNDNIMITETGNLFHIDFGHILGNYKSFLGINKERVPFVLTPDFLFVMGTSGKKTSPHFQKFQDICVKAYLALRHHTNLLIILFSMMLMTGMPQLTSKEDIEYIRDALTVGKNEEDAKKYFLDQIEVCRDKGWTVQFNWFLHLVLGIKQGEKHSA
Phosphatidylinositol 4,5-bisphosphate 3-kinase catalytic subunit alpha isoform, sequence (P42336 whole entry, canonical isoform): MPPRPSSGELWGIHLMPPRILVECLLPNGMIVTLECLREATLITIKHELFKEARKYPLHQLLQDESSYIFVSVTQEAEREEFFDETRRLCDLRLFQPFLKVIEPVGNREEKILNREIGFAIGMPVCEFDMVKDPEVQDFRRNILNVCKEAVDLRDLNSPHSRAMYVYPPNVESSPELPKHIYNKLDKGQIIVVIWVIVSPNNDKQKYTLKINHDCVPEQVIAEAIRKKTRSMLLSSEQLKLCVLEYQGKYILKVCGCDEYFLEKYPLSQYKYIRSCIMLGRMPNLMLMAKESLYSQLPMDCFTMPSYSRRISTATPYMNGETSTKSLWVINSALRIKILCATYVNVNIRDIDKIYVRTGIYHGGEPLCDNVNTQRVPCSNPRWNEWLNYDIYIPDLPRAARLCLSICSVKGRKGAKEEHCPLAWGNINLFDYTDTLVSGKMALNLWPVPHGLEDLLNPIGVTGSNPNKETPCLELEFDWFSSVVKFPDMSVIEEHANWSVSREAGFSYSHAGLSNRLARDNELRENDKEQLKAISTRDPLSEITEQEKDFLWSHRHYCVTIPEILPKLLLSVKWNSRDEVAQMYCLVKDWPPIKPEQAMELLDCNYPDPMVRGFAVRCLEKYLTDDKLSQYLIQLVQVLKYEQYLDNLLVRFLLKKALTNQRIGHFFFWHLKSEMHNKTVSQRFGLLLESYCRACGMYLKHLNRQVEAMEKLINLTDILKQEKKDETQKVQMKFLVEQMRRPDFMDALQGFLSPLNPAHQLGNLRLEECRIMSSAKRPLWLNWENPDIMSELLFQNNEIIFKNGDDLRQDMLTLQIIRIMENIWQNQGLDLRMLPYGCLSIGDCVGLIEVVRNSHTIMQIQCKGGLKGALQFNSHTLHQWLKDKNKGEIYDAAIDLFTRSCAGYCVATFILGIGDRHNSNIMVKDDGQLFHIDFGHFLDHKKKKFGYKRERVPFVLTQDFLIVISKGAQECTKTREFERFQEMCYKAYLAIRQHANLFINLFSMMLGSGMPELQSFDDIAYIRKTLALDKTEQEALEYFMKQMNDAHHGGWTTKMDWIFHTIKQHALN

## Cc1ccccc1-n1c(Cn2cnc3c(N)ncnc32)cc2cccc(C)c2c1=O [US20250170122, Compound 5]
[1]
  IC50: < 10000 nM
[2]
  IC50: > 10000 nM

## Cc1cccc2cc(Cn3nc(-c4cccc(Cl)c4)c4c(N)ncnc43)n(-c3ccccc3F)c(=O)c12 [US20250170122, Compound 38]
[2]
  IC50: < 10000 nM

## Cc1cccc2cc(Cn3nc(-c4ccc(O)cc4)c4c(N)ncnc43)n(-c3ccccc3F)c(=O)c12 [US20250170122, Compound 46]
[1]
  IC50: < 10000 nM
[3]
  IC50: > 10000 nM
[4]
  IC50: > 10000 nM
[2]
  IC50: < 1000 nM

## Cc1cccc2cc(Cn3nc(I)c4c(N)ncnc43)n(C3CCCC3)c(=O)c12 [US20250170122, Compound 57]
[1]
  IC50: < 1000 nM
[3]
  IC50: > 10000 nM
[4]
  IC50: > 10000 nM
[2]
  IC50: < 10000 nM

## Cc1cccc2cc(Cn3nc(-c4ccc(Cl)c(O)c4)c4c(N)ncnc43)n(C3CCCC3)c(=O)c12 [US20250170122, Compound 71]
[1]
  IC50: < 1000 nM
[3]
  IC50: > 10000 nM
[4]
  IC50: < 10000 nM
[2]
  IC50: < 1000 nM

## CC(C)n1c(Cn2nc(I)c3c(N)ncnc32)cc2ccccc2c1=O [US20250170122, Compound 129]
[1]
  IC50: < 10000 nM

## CC(=O)Nc1nc2ccc(-c3nn(Cc4cc5cccc(C)c5c(=O)n4-c4ccccc4)c(C)c3CN)cc2s1 [US20250170122, Compound 177]
[1]
  IC50: < 100 nM
[2]
  IC50: < 100 nM

## Cc1cccc2cc(C(C)Nc3ncnc4[nH]cnc34)n(-c3ccccc3F)c(=O)c12 (stereo not drawn) [US20250170122, Compound 203]
[2]
  IC50: < 100 nM

## C[C@H](Nc1ncnc2[nH]cnc12)c1cc2cccc(Cl)c2c(=O)n1-c1cccc(F)c1 [US20250170122, Compound 328]
[1]
  IC50: < 100 nM
[2]
  IC50: < 100 nM

## C[C@H](Nc1ncnc2[nH]cnc12)c1cc2cccc(Cl)c2c(=O)n1-c1ccc(F)cc1 [US20250170122, Compound 329]
[1]
  IC50: < 100 nM
[4]
  IC50: < 100 nM
[2]
  IC50: < 100 nM

## C[C@H](Nc1ncnc2[nH]cnc12)c1cc2cccc(F)c2c(=O)n1-c1ccccc1 [US20250170122, Compound 330]
[1]
  IC50: < 100 nM
[2]
  IC50: < 100 nM

## C[C@H](Nc1ncnc2[nH]cnc12)c1cc2cccc(F)c2c(=O)n1-c1cccc(F)c1 [US20250170122, Compound 331]
[1]
  IC50: < 100 nM

## C[C@H](Nc1ncnc2[nH]cnc12)c1cc2cccc(F)c2c(=O)n1-c1ccc(F)cc1 [US20250170122, Compound 332]
[2]
  IC50: < 100 nM

## Cc1ccccc1-n1c(Cn2nc(-c3cn[nH]c3)c3c(N)ncnc32)cc2cccc(Cl)c2c1=O [US20250170122, Compound 336]
[1]
  IC50: < 100 nM
[2]
  IC50: < 100 nM

## Nc1ncnc2c1c(-c1cn[nH]c1)nn2Cc1cc2cccc(Cl)c2c(=O)n1-c1ccccc1F [US20250170122, Compound 337]
[1]
  IC50: < 100 nM

## Nc1ncnc2c1c(-c1cn[nH]c1)nn2Cc1cc2cccc(Cl)c2c(=O)n1-c1ccccc1 [US20250170122, Compound 338]
[1]
  IC50: < 100 nM
[2]
  IC50: < 100 nM

## Nc1ncnc2c1c(-c1cn[nH]c1)nn2Cc1cc2cccc(Cl)c2c(=O)n1-c1cccc(F)c1 [US20250170122, Compound 339]
[1]
  IC50: < 100 nM

## C[C@H](Nc1ncnc2ccccc12)c1cc2cccc(Cl)c2c(=O)n1-c1ccccc1 [US20250170122, Compound 342]
[2]
  IC50: < 100 nM

## C[C@H](Nc1ncnc2sccc12)c1cc2cccc(Cl)c2c(=O)n1-c1ccccc1 [US20250170122, Compound 343]
[1]
  IC50: < 100 nM
[2]
  IC50: < 100 nM

## C[C@H](Nc1ncnc2ccsc12)c1cc2cccc(Cl)c2c(=O)n1-c1ccccc1 [US20250170122, Compound 344]
[1]
  IC50: < 100 nM
[2]
  IC50: < 100 nM

## C[C@H](Nc1nc(N)ncc1C(F)(F)F)c1cc2cccc(Cl)c2c(=O)n1-c1ccccc1 [US20250170122, Compound 346]
[1]
  IC50: < 100 nM
[2]
  IC50: < 100 nM

## [2H]c1nc2c(N[C@@H](C)c3cc4cccc(Cl)c4c(=O)n3C3CC3)ncnc2[nH]1 [US20250170122, Compound 350]
[3]
  IC50: < 1000 nM

## Cc1csc2ncnc(N[C@@H](C)c3cc4cccc(Cl)c4c(=O)n3-c3ccccc3)c12 [US20250170122, Compound 352]
[1]
  IC50: < 100 nM
[2]
  IC50: < 100 nM

## CNc1ncc(C(F)(F)F)c(N[C@@H](C)c2cc3cccc(Cl)c3c(=O)n2-c2ccccc2)n1 [US20250170122, Compound 354]
[1]
  IC50: < 100 nM
[2]
  IC50: < 100 nM

## C[C@H](Nc1ncnc2[nH]cnc12)c1cc2ncccc2c(=O)n1-c1ccccc1 [US20250170122, Compound 357]
[1]
  IC50: < 100 nM

## C[C@H](Nc1nc(N)nc2ccccc12)c1cc2cccc(Cl)c2c(=O)n1-c1ccccc1 [US20250170122, Compound 359]
[2]
  IC50: < 100 nM

## CC(C)C[C@H](Nc1ncnc2[nH]cnc12)c1cc2cccc(Cl)c2c(=O)n1-c1ccccc1 [US20250170122, Compound 363]
[1]
  IC50: < 100 nM

## CC(C)[C@H](Nc1ncnc2[nH]cnc12)c1cc2cccc(Cl)c2c(=O)n1-c1ccccc1 [US20250170122, Compound 364]
[1]
  IC50: < 100 nM

## C[C@H](Nc1ncnc2[nH]cnc12)c1cc2cccc(Cl)c2c(=O)n1-c1cccc(Cl)c1 [US20250170122, Compound 365]
[1]
  IC50: < 100 nM
[2]
  IC50: < 100 nM

## C[C@H](Nc1ncnc2[nH]cnc12)c1cc2cccc(Cl)c2c(=O)n1-c1cccc(C(F)(F)F)c1 [US20250170122, Compound 366]
[1]
  IC50: < 100 nM

Reference: BindingDB's records for patent US20250170122 (Intellikine, 2025)
